In brackets after ≈: the same amount, converted by molar mass.
How the values were obtained:
Staphylococcus aureus [1] = assay: Antimicrobial activity against methicillin-resistant Staphylococcus aureus SAP0017; type: functional
Staphylococcus aureus [2] = assay: Antimicrobial activity against methicillin-sensitive Staphylococcus aureus K147; type: functional
Escherichia coli = assay: Antimicrobial activity against Escherichia coli DC2; type: functional
Bacillus subtilis = assay: Antimicrobial activity against Bacillus subtilis Vernon; type: functional
[3] = Antiproliferative activity against human MK1 cells by MTT assay; type: cell-based; conditions: read-out: ED50 (the source's name)

Q: For `C=C[C@@H](O)C#CC#C[C@@H](O)/C=C\CCCCCCC` [FALCARINDIOL], which MIC (Staphylococcus aureus [1]) is on record?
A: 25 µg/mL (≈ 96 µM)

Q: And the MIC (Staphylococcus aureus [2])?
A: 12.5 µg/mL (≈ 48 µM)

Q: And the MIC (Escherichia coli)?
A: 2.5 µg/mL (≈ 9.6 µM)

Q: And the MIC (Bacillus subtilis)?
A: 12.5 µg/mL (≈ 48 µM)

Q: And the GI50 [3]?
A: 3.2 µg/mL (≈ 12.3 µM)

From ChEMBL document CHEMBL1141830, “Stereoselective total synthesis of (3R,8S)-falcarindiol, a common polyacetylenic compound from umbellifers” (J Nat Prod, 1999)
